Experimental data reported in patent US7687457B2, “Cyclic molecular framework and derivatives thereof” (The University of Queensland, priority 1999, dated 2010).
Where a SMILES comes first, the peptide text is derived from it.

Test system: erythrocytes
Assay: haemolytic activity, lysis of erythrocytes
Type: cell-based
Conditions: haemolysis; read-out: concentration causing 50% lysis of erythrocytes

CC[C@H](C)[C@@H]1NC(=O)CNC(=O)[C@H](CC(N)=O)NC(=O)[C@H](Cc2ccc(O)cc2)NC(=O)[C@@H]2CSSC[C@@H]3NC(=O)[C@@H]4CCCN4C(=O)[C@H]([C@@H](C)CC)NC(=O)[C@H](Cc4ccc(O)cc4)NC(=O)[C@H](C(C)C)NC(=O)[C@@H]4CSSC[C@H](NC(=O)[C@H](CO)NC(=O)[C@H](CSSC[C@H](NC(=O)[C@@H]5CCCN5C1=O)C(=O)N[C@@H](C)C(=O)N[C@@H](CCC(=O)O)C(=O)N[C@@H](CO)C(=O)N4)NC(=O)CNC(=O)[C@H](CC(C)C)NC(=O)[C@H](CC(C)C)NC(=O)[C@H](C)NC(=O)[C@H]([C@@H](C)O)NC(=O)[C@H](C(C)C)NC(=O)[C@H]([C@@H](C)O)NC3=O)C(=O)N[C@@H](CO)C(=O)N[C@@H](CC(N)=O)C(=O)N[C@@H](CCCNC(=N)N)C(=O)N[C@@H](C(C)C)C(=O)N2 [cycloviolacin 01] (HELM PEPTIDE1{A.E.S.C.V.Y.I.P.C.T.V.T.A.L.L.G.C.S.C.S.N.R.V.C.Y.N.G.I.P.C}$PEPTIDE1,PEPTIDE1,4:R3-19:R3|PEPTIDE1,PEPTIDE1,9:R3-24:R3|PEPTIDE1,PEPTIDE1,17:R3-30:R3|PEPTIDE1,PEPTIDE1,1:R1-30:R2$$$V2.0)
EC50: ~20 µM
